Entries after “also recorded” stand apart in the source; their conditions may differ.
Key:
CD1 male mice [1] = test: Oral glucose tolerance test (mouse model of hyperglycemia / type II diabetes); format: in vivo; conditions: for Effect on blood glucose levels (in words): mouse model of hyperglycemia, high glucose load
Text: Type II diabetes is characterized by high blood glucose levels in the presence of normal amounts of insulin. Animal models of type II diabetes involve administering high levels of glucose and measuring blood glucose levels and the ability of the experimental animal to maintain glucose homeostasis over time. Several pharmacological structural classes can effectively regulate this hyperglycemic response including sulfonylureas, thiazoladinediones (PPARγ agonists; glitazones) or metformin (glucophage). These drug classes are also clinically approved for use in humans. In one present study, a mouse model of hyperglycemia has been established by administering high levels of glucose to mice.
CD1 male mice (Harlan, Indianapolis, Ind.) of between 8 and 10 weeks of age were fasted 18 hours prior to the start of the study. All blood glucose levels were measured using an Accu-Check Aviva glucose monitors with Aviva glucose test strips from a blood drop derived from the mouse tail. Prior to any treatment, baseline levels of blood glucose were measured in fasted mice. Thirty minutes after baseline measurement, Compound 101 or vehicle was administered via intravenous administration. Thirty minutes after compound administration, animals were administered an oral solution (via gavage) of glucose in distilled water. The dose of glucose was 1.5 g/Kg of body weight. Blood glucose levels were measured 15, 30, 60, 90 and 120 minutes after glucose challenge. There were 6 mice per treatment group.
Blood glucose levels were taken from treated and untreated groups at the times above and measured for concentration of glucose in milligram per deciliter of blood of sample. Average values were calculated for each time point from each group and summarized after performing statistical analysis in Table III below:
After plotting the concentration of blood glucose level over time of treated verses non-treated groups, the area under each curve was calculated to determine the glucose exposure of the treated groups of mice over time. A Student's t test with a p value of <0.001 was performed to generate a standard deviation for the average calculated glucose exposure of the group treated with Compound 101 as compared to the group treated with vehicle alone.

CD1 male mice [2] = test: as above; format: in vivo; conditions: area under blood glucose vs time curve; 7 mg/kg intravenous; oral glucose 1.5 g/Kg; p < 0.01 vs vehicle

Cc1cccc(Oc2c[nH]c(=O)[nH]c2=O)c1 [Compound 101, 5-(m-tolyloxy)pyrimidine-2,4(1H,3H)-dione]
Blood glucose levels, AVG ± SEM (CD1 male mice [1]; 0 min, baseline in fasted mice before treatment, Compound 101 group (7 mg/kg intravenous given at 30 min)): 62.0 ± 13.1 mg/dL | Blood glucose levels, AVG ± SEM (CD1 male mice [1]; 75 minutes (15 min after oral glucose 1.5 g/Kg), 7 mg/kg intravenous, 30 min before glucose): 119.6 ± 36.0 mg/dL | Blood glucose levels, AVG ± SEM (CD1 male mice [1]; 90 minutes (30 min after oral glucose 1.5 g/Kg), 7 mg/kg intravenous, 30 min before glucose): 156.4 ± 55.9 mg/dL | Blood glucose levels, AVG ± SEM (CD1 male mice [1]; 120 minutes (60 min after oral glucose 1.5 g/Kg), 7 mg/kg intravenous, 30 min before glucose): 152.2 ± 33.9 mg/dL | Blood glucose levels, AVG ± SEM (CD1 male mice [1]; 150 minutes (90 min after oral glucose 1.5 g/Kg), 7 mg/kg intravenous, 30 min before glucose): 107.8 ± 34.1 mg/dL | Blood glucose levels, AVG ± SEM (CD1 male mice [1]; 180 minutes (120 min after oral glucose 1.5 g/Kg), 7 mg/kg intravenous, 30 min before glucose): 102.6 ± 39.9 mg/dL | Effect on blood glucose levels (in words) (CD1 male mice [1]): effective in reducing blood glucose levels; also recorded: effectively controls glucose levels in vivo | Glucose Exposure (Area Under the Curve; AUC), blood glucose levels AUC (CD1 male mice [2]): 8424.7 ± 1922.5 mg·min/dL

CN(C)C(=N)N=C(N)N [metformin, reference compound]
Effect on blood glucose levels (in words) (CD1 male mice [1]): can effectively reduce the blood glucose load
